Test results taken from the NIST ThermoML archive (doi:10.1016/j.tca.2019.01.016).
± gives the expanded uncertainty stated by the source.

Details: 298 K; 101.33 kPa; Crystal; SIGMATEST 2.069 (Foerster) testing instrument - complex impedance measurements

[Ag] [silver]
electrical conductivity: 6.107e+07 ± 610000 S/m
